Holding throughout (type): nucleic-acid assay
Assay [1] deals with Nucleic Acid. Kind of assay: Binding affinity to D16 ssDNA aptamer.
The subject of assay [2] is Nucleic Acid. Kind of assay: Binding affinity to D22 ssDNA aptamer.
In assay [3] the test system is Nucleic Acid. Kind of assay: Binding affinity to D3 ssDNA aptamer.
The target in assay [4] is Nucleic Acid. Kind of assay: Binding affinity to D10/DA24 ssDNA aptamer.

The source made the active and inactive calls. No cut-off for these calls is given here.

Consider `O=C(O)Cc1ccccc1Nc1ccccc1`, for which the result in the assay with Nucleic Acid [1] and in the assay with Nucleic Acid [2] was Active. Further, the result in the assay with Nucleic Acid [3] was inactive.
`O=C(O)Cc1ccccc1Nc1c(Cl)cccc1Cl` [DICLOFENAC]: the Kd (in general, the concentration at which binding is half-saturated) stood at 0.149 µM at Nucleic Acid [1], 0.101 µM on Nucleic Acid [4], 0.166 µM on Nucleic Acid [2] and 0.0427 µM on Nucleic Acid [3].

Source of the values: ChEMBL document CHEMBL1152509, “ssDNA aptamers that recognize diclofenac and 2-anilinophenylacetic acid” (Bioorg Med Chem, 2009).
